Measured values from patent US20130172378A1, “Combination of BRAF and VEGF Inhibitors” (GlaxoSmithKline LLC, priority 2010, published 2013).

What was measured:
Format in all cases: in vivo, CD-1 nude mice
[1] = Body weight of nude mice bearing A375P F11s xenografts during treatment; conditions: in g (unit assumed)
Procedure: (§1) Female CD-1 nude mice of 6-8 weeks in age were used in these studies; all mice were obtained from Charles River Laboratories (Wilmington, Del.). Animals were housed in pathogen free conditions and handled with aseptic technique.
(§2) Mice with similar sized tumors (100-300 mm^3) were identified. The length and width of the tumors were measured by handheld calipers and body weights of the mice were measured using a bench top weighing scale. Tumor volumes were calculated based on the following formula: tumor volume=(Length×Width^2)/2. Mice were block randomized into the required number of dosing groups (n=8 mice/group). The randomization process ensured that the average tumor volume for each dosing group was approximately equal at the beginning of the study and mice with differing tumor volumes were evenly distributed. Mice were placed in groups of eight accordingly and dosed with either vehicle or compound for 36 days either once or twice daily, as summarised in the table below. Mice were weighed and tumors measured twice weekly for the duration of the study using Studylog animal study management software (Studylog Systems, Inc., South San Francisco, Calif., USA).

[2] = system: A375P F11s tumor xenografts (human melanoma, BRAF V600E); assay: A375P F11s melanoma tumor xenograft efficacy in nude mice
[3] = system: A375P F11s tumor xenografts (human melanoma, BRAF V600E); assay: as above; remark: listed apart in the source
Procedure: as §1
The A375P F11s cell lines were grown in RPMI growth medium supplemented with 10% fetal bovine serum (FBS), 1% sodium pyruvate and 1% penicillin-streptomycin in a humidified 37° C. chamber with 5% CO2. Cells were expanded to obtain the large numbers of cells required for each injection; cells were grown in log phase, without reaching confluency and passaged regularly.
Detached cells were collected, centrifuged (1500 rpm, 5 min, 4° C.) and rinsed to remove the trypsin solution. Cells were re-suspended in PBS without magnesium or calcium and counted.
Compounds were administered in vehicles as described below.
as §2
Tumor volumes were calculated based on the following formula: tumor volume=(Length×Width^2)/2. Tumor growth curves were created from the mean±standard error of the mean, with n=8 animals per group. The percentage of tumor growth inhibition was calculated on the final day of dosing using the following formula: 1−(tumor volume in drug-treated population/tumor volume in vehicle-treated control population).

[4] = group 3: Compound B 10 mg/kg PO QD, study day 0
[5] = group 3: Compound B 10 mg/kg PO QD, study day 3
[6] = group 3: Compound B 10 mg/kg PO QD, study day 7
[7] = group 3: Compound B 10 mg/kg PO QD, study day 9
[8] = group 3: Compound B 10 mg/kg PO QD, study day 15
[9] = group 3: Compound B 10 mg/kg PO QD, study day 18
[10] = group 3: Compound B 10 mg/kg PO QD, study day 22
[11] = group 3: Compound B 10 mg/kg PO QD, study day 25
[12] = group 3: Compound B 10 mg/kg PO QD, study day 28
[13] = group 3: Compound B 10 mg/kg PO QD, study day 31
[14] = group 4: Compound B 30 mg/kg PO QD, study day 0
[15] = group 4: Compound B 30 mg/kg PO QD, study day 3
[16] = group 4: Compound B 30 mg/kg PO QD, study day 7
[17] = group 4: Compound B 30 mg/kg PO QD, study day 9
[18] = group 4: Compound B 30 mg/kg PO QD, study day 15
[19] = group 4: Compound B 30 mg/kg PO QD, study day 18
[20] = group 4: Compound B 30 mg/kg PO QD, study day 22
[21] = group 4: Compound B 30 mg/kg PO QD, study day 25
[22] = group 4: Compound B 30 mg/kg PO QD, study day 28
[23] = group 4: Compound B 30 mg/kg PO QD, study day 31
[24] = group 4: Compound B 30 mg/kg PO QD, study day 37
[25] = group 4: Compound B 30 mg/kg PO QD, study day 35

With `Cc1ccc(Nc2nccc(N(C)c3ccc4c(C)n(C)nc4c3)n2)cc1S(N)(=O)=O` [Compound A, 5-[[4-[(2,3-dimethyl-2H-indazol-6-yl)methylamino]-2-pyrimidinyl]amino]-2-methylbenzenesulfonamide] the “Mean body weight of nude mice” value ([1]; group 2: Compound A 100 mg/kg PO BID, study day 0) was 24.98, the “Mean body weight of nude mice” value ([1]; group 2: Compound A 100 mg/kg PO BID, study day 3) was 25.13 and the “Mean body weight of nude mice” value ([1]; group 2: Compound A 100 mg/kg PO BID, study day 7) was 25.63. The “Mean body weight of nude mice” value ([1]; group 2: Compound A 100 mg/kg PO BID, study day 15) was 24.83, the “Mean body weight of nude mice” value ([1]; group 2: Compound A 100 mg/kg PO BID, study day 18) was 25.35 and the “Mean body weight of nude mice” value ([1]; group 2: Compound A 100 mg/kg PO BID, study day 22) was 24.71. For the same molecule, the “Mean body weight of nude mice” value ([1]; group 2: Compound A 100 mg/kg PO BID, study day 25) was 24.79, the “Mean body weight of nude mice” value ([1]; group 2: Compound A 100 mg/kg PO BID, study day 28) was 24.91 and the “Mean body weight of nude mice” value ([1]; group 2: Compound A 100 mg/kg PO BID, study day 35) was 24.95. The “Mean body weight of nude mice” value ([1]; group 2: Compound A 100 mg/kg PO BID, study day 37) was 25.00.
With `CC(C)(C)c1nc(-c2cccc(NS(=O)(=O)c3c(F)cccc3F)c2F)c(-c2ccnc(N)n2)s1` [Compound B, N-{3-[5-(2-Amino-4-pyrimidinyl)-2-(1,1-dimethylethyl)-1,3-thiazol-4-yl]-2-fluorophenyl}-2,6-difluorobenzenesulfonamide] the “Mean A375P F11s tumor volume” value [2, 4] was 178.5 mm^3, the “Percent Inhibition of A375P F11s tumor volume compared to vehicle treated mice” value (“Percent Inhibition” for short) [2, 4] was −3.6% and the “Mean A375P F11s tumor volume” value [2, 5] was 164.5 mm^3. The “Percent Inhibition” value [2, 5] was 34.3%, the “Percent Inhibition” value [2, 6] was 39.0% and the “Mean A375P F11s tumor volume” value [2, 7] was 247.5 mm^3. The “Percent Inhibition” value [2, 7] was 36.6%, the “Mean A375P F11s tumor volume” value [2, 8] was 350.4 mm^3 and the “Percent Inhibition” value [2, 8] was 45.3%. The “Mean A375P F11s tumor volume” value [2, 9] was 469.7 mm^3, the “Percent Inhibition” value [2, 9] was 35.4% and the “Mean A375P F11s tumor volume” value [2, 10] was 494.2 mm^3. The “Percent Inhibition” value [2, 10] was 47.2%, the “Mean A375P F11s tumor volume” value [2, 11] was 581.5 mm^3 and the “Percent Inhibition” value [2, 11] was 46.6%. The “Mean A375P F11s tumor volume” value [2, 12] was 682.0 mm^3, the “Percent Inhibition” value [2, 12] was 45.6% and the “Mean A375P F11s tumor volume” value [2, 13] was 830.5 mm^3. For the same molecule, the “Mean A375P F11s tumor volume” value ([2]; group 3: Compound B 10 mg/kg PO QD, study day 35) was 1,105.5 mm^3, the “Mean A375P F11s tumor volume” value [2, 14] was 156.9 mm^3 and the “Percent Inhibition” value [2, 14] was 8.9%. The “Percent Inhibition” value [2, 15] was 42.4%, the “Mean A375P F11s tumor volume” value [2, 16] was 104.1 mm^3 and the “Percent Inhibition” value [2, 16] was 66.5%. The “Percent Inhibition” value [2, 17] was 74.5%, the “Mean A375P F11s tumor volume” value [2, 18] was 94.0 mm^3 and the “Percent Inhibition” value [2, 18] was 85.3%. For the same molecule, the “Mean A375P F11s tumor volume” value [2, 19] was 104.4 mm^3, the “Percent Inhibition” value [2, 19] was 85.6% and the “Percent Inhibition” value [2, 20] was 87.6%. For the same molecule, the “Percent Inhibition” value [2, 21] was 87.0%, the “Mean A375P F11s tumor volume” value [2, 22] was 148.7 mm^3 and the “Percent Inhibition” value [2, 22] was 88.1%. For the same molecule, the “Mean A375P F11s tumor volume” value [2, 23] was 166.1 mm^3, the “Mean A375P F11s tumor volume” value [2, 24] was 207.6 mm^3 and the “Mean body weight of nude mice” value [1, 4] was 25.71. For the same molecule, the “Mean body weight of nude mice” value [1, 5] was 26.14, the “Mean body weight of nude mice” value [1, 6] was 26.13 and the “Mean body weight of nude mice” value [1, 7] was 26.29. For the same molecule, the “Mean body weight of nude mice” value [1, 8] was 25.69, the “Mean body weight of nude mice” value [1, 9] was 26.44 and the “Mean body weight of nude mice” value [1, 10] was 26.00. For the same molecule, the “Mean body weight of nude mice” value [1, 11] was 26.45, the “Mean body weight of nude mice” value [1, 12] was 26.55 and the “Mean body weight of nude mice” value [1, 13] was 27.11. For the same molecule, the “Mean body weight of nude mice” value [1, 14] was 25.49, the “Mean body weight of nude mice” value [1, 15] was 25.38 and the “Mean body weight of nude mice” value [1, 16] was 25.15. For the same molecule, the “Mean body weight of nude mice” value [1, 17] was 25.35, the “Mean body weight of nude mice” value [1, 18] was 24.46 and the “Mean body weight of nude mice” value [1, 19] was 24.84. The “Mean body weight of nude mice” value [1, 20] was 24.67, the “Mean body weight of nude mice” value [1, 21] was 24.87 and the “Mean body weight of nude mice” value [1, 22] was 24.79. For the same molecule, the “Mean body weight of nude mice” value [1, 23] was 24.83, the “Mean body weight of nude mice” value [1, 25] was 24.41 and the “Mean body weight of nude mice” value [1, 24] was 24.65. For the same molecule, the “Mean A375P F11s tumor volume” value [3, 6] was 189.5 mm^3, the “Mean A375P F11s tumor volume” value [3, 15] was 144.2 mm^3 and the “Mean A375P F11s tumor volume” value [3, 17] was 99.5 mm^3. The “Mean A375P F11s tumor volume” value [3, 20] was 116.4 mm^3, the “Mean A375P F11s tumor volume” value [3, 21] was 142.1 mm^3 and the “Mean A375P F11s tumor volume” value [3, 25] was 168.1 mm^3.
